Measured values published in patent US20260174829A1, “METHODS OF REDUCING TYPE 2 CYTOKINE-MEDIATED INFLAMMATION USING NEUROMEDIN PEPTIDES” (Rutgers, The State University of New Jersey, priority 2018, published 2026).

Legend:
[1] = tested on: Nippostrongylus brasiliensis (Nb)-infected mice; test: Nmb treatment (i.t.) of Nippostrongylus brasiliensis-infected mice; assay type: in vivo, mouse
Description: FIGS. 6A-6E. […] (A), Nb-infected mice were treated with PBS or Nmb (i.t.) and ILC2s in the BAL were quantified. (B) Expression of IL-5 and IL-13 in the lungs of PBS or Nmb-treated mice was determined on day 7 post-Nb by Real-time PCR. (C) Eosinophils in the BAL were quantified and (D) worm burdens were determined on day 7 post-Nb infection. ILC2s were sort-purified from the lungs of control or baso-dep mice on day 7 post-Nb and cultured (O/N) with IL-2 and IL-7 in the presence or absence of Nmb and (E) IL-5 and IL-13 levels in culture supernatants were determined by ELISA. P values were determined by two-tailed Student's t-tests.
Methods for maintenance, recovery, infection and isolation of N. brasiliensis larvae were performed as previously described (Camberis et al., 2003, Animal model of Nippostrongylus brasiliensis and Heligmosomoides polygyrus. Current protocols in immunology/edited by John E. Coligan . . . [et al.] Chapter 19:Unit 19.12.). Mice were infected with ˜500 N. brasiliensis larvae by subcutaneous injection. For basophil depletion, WT and basophil-depleted mice were treated with 0.375 μg of diphtheria toxin i.p. every other day; mice were sacrificed 3-7 days post-N. brasiliensis infection. For neuromedin B treatment, mice were anesthetized and treated with 10 μg of neuromedin B (MP Biomedicals) dissolved in 50 μL of PBS administered via intratracheal instillation.
For BAL collection after necropsy, 5 mL of PBS were injected and aspirated from the trachea of each mouse, after collection the volume of BAL collected was recorded. Following BAL collection, lungs were collected at necropsy and single-cell suspensions for flow cytometric analysis were prepared as previously described (Jungblut et al., J Vis Exp 29:1266, 2009). Briefly, pulmonary tissue was minced and incubated in HBSS containing 2.5% of FBS, collagenase D (2 mg/mL, Roche) and DNAse I (80 U/mL, Roche) for 30 min at 37° C. Cell suspensions were filtered through a […] filter and analyzed by flow cytometry. Additionally sections of pulmonary tissue were collected for real-time PCR and histological analysis.
Cells were stained with monoclonal anti-mouse fluorescently conjugated antibodies: B220 (RA3-6B2), c-Kit (ACK2), CD3 (145-2C11), CD4 (GK1.5), CD5 (53-73), CD19 (1D3), NK1.1 (PK136), CD11b (MI/70), CD11c (N418), IgE (23G3), FcRI (MAR-1), CD49b (DX5), CD45 (30-F11), CD90 (5E10), CD127 (A7R34), F4/80 (BM8), γδTCR (eBioGL3), Siglec-F (E50-2440), LγδG (1A8), LγδC (AL-21), IL-5 (TRFK5), IL-13 (eBiol3A), Ter-119 (TER-119) from eBioscience or BD Biosciences. For intracellular staining, cells were incubated for 5 hours at 37° C. with Leukocyte Activation Cocktail, with BD GolgiPlug™ (BD Biosciences) following manufacturer's instructions. Basophils were analyzed as CD45^+CD3^−CD19^−FceR1^+CD49b^+. Eosinophils were analyzed as CD45^+CD11b^+Siglec-F^+CD11c^−. Neutrophils were analyzed as Live CD45^+CD11b^+LγδG^+. ILC2s were analyzed as CD45^+CD3^−CD19^−CD11b^−CD11c^−NK1.1^−B220^−CD5^−Ter-119^− γδ TCR^−CD90^+CD127^+IL-5^+IL-13^+. Samples were acquired on a BD Fortessa flow cytometer (BD Biosciences) and analyzed using Flowlo software (v10.0.5, Tree Star). Cell sorting was performed using a FACSAriaII (BD Bioscience).
RNA from sections of lung tissue was isolated by homogenization in TRIzol (Invitrogen) followed by phenol-chloroform extraction and isopropanol precipitation. cDNA was generated per standard protocol with Superscript reverse transcriptase (Invitrogen) and used as input for real-time PCR. Real-time data were analyzed using the ΔΔCT method using SYBR Green chemistry (Applied Biosystems) with β-actin serving as the endogenous housekeeping gene. All reactions were run on an ABI 7500 Fast Real-Time PCR System (Applied Biosystems). Samples were normalized to naïve controls.

ILC2s = test: RNA sequencing of ILC2s cultured overnight with or without Nmb; assay type: cell-based, mouse; conditions: gene expression, NMB treated vs untreated ILC2s
Description: To gain further insight into how NMB might alter lymphocyte activation, ILC2s were sort-purified from the lungs of Nb-infected mice and cultured overnight with survival cytokines (IL-2, IL-7), with or without Nmb. Then, gene expression was evaluated by RNA sequencing analysis. […] This allowed for identification of NMB signaling pathways.

[2] = Nmb i.t. vs PBS, day 7, Real-time PCR
[3] = Nmb i.t. vs PBS, day 7 post-infection

With H2N-GNLWATGHFM-amide [Nmb] the “IL-5 expression in the lungs” value [1, 2] was “reduced”, the “IL-13 expression in the lungs” value [1, 2] was “reduced” and the “ILC2 responses (ILC2s in the BAL)” value [1, 3] was “reduced”. For the same substance, the “eosinophilia (eosinophils in the BAL)” value [1, 3] was “reduced”, the infection-induced neutrophilia [1, 3] was “no effect” and the “worm clearance (worm burdens)” value ([1]; Nmb i.t. vs control mice, day 7 post-infection) was “failed to clear worms as efficiently as control mice”. The “Fold change Gm10031” value (ILC2s) was −6.203, the “Fold change Gm14288” value (ILC2s) was −25.43 and the “Fold change Hgs_2” value (ILC2s) was −1.893. The “Fold change Ighg1” value (ILC2s) was 253.6, the “Fold change Ighg2b” value (ILC2s) was 276 and the “Fold change Igkv1-135” value (ILC2s) was 47.49. For the same substance, the “Fold change Igkv8-28” value (ILC2s) was 43.8, the “Fold change Igkv17-127” value (ILC2s) was 800.9 and the “Fold change Il1b” value (ILC2s) was 3.263. The “Fold change Klra7” value (ILC2s) was −1.984, the “Fold change Ly6c2” value (ILC2s) was −2.369 and the “Fold change Mcpt2” value (ILC2s) was −11.86. The “Fold change Nkg7” value (ILC2s) was −1.895, the “Fold change P2rx7” value (ILC2s) was −2.149 and the “Fold change Serpinb2” value (ILC2s) was 5.696. For the same substance, the “Fold change Sprr2a2” value (ILC2s) was 37.85, the “Fold change Tsix” value (ILC2s) was 2.833 and the “Fold change Xist” value (ILC2s) was 3.077.
